Source: BindingDB's records for doi:10.1016/S0960-894X(00)80020-7 (1993)

How the values were obtained:
[1] = target: Thymidine kinase (Human herpesvirus 1); experiment: Inhibition of HSV-1 Thymidine kinase
[2] = target: Thymidine kinase (Human herpesvirus 1); experiment: Binding affinity against HSV-1 Thymidine kinase

| Structure (SMILES) | IC50 [1] [µM] | Ki [2] [µM] |
| --- | --- | --- |
| CCCO[C@@H]1O[C@@H](n2cc(C)c(=O)[nH]c2=O)C[C@H]1O [1-((2R,4R,5R)-4-Hydroxy-5-propoxy-tetrahydro-furan-2-yl)-5-methyl-1H-pyrimidine-2,4-dione] | > 50 |  |
| Cc1cn([C@H]2C[C@H](O)[C@@H](OC(C)(C)C)O2)c(=O)[nH]c1=O [1-((2R,4S,5S)-5-tert-Butoxy-4-hydroxy-tetrahydro-furan-2-yl)-5-methyl-1H-pyrimidine-2,4-dione] | > 50 |  |
| CCO[C@@H]1O[C@@H](n2cc(C)c(=O)[nH]c2=O)C[C@H]1O [1-((2R,4R,5R)-5-Ethoxy-4-hydroxy-tetrahydro-furan-2-yl)-5-methyl-1H-pyrimidine-2,4-dione] | > 50 |  |
| C#C[C@H]1O[C@@H](n2cc(C)c(=O)[nH]c2=O)C[C@@H]1O [1-((2R,4S,5R)-5-Ethynyl-4-hydroxy-tetrahydro-furan-2-yl)-5-methyl-1H-pyrimidine-2,4-dione] | 3 | 2 |
| CCCO[C@H]1O[C@@H](n2cc(C)c(=O)[nH]c2=O)C[C@@H]1O [1-((2R,4S,5S)-4-Hydroxy-5-propoxy-tetrahydro-furan-2-yl)-5-methyl-1H-pyrimidine-2,4-dione] | > 50 |  |
| CCO[C@H]1O[C@@H](n2cc(C)c(=O)[nH]c2=O)C[C@@H]1O [1-((2R,4S,5S)-5-Ethoxy-4-hydroxy-tetrahydro-furan-2-yl)-5-methyl-1H-pyrimidine-2,4-dione] | 50 |  |
| Cc1cn([C@H]2C[C@H](O)[C@@H](OCCCc3ccccc3)O2)c(=O)[nH]c1=O [1-[(2R,4S,5S)-4-Hydroxy-5-(3-phenyl-propoxy)-tetrahydro-furan-2-yl]-5-methyl-1H-pyrimidine-2,4-dione] | 10 | 4.3 |
| Cc1cn([C@H]2C[C@@H](O)[C@H](OCCCc3ccccc3)O2)c(=O)[nH]c1=O [1-[(2R,4R,5R)-4-Hydroxy-5-(3-phenyl-propoxy)-tetrahydro-furan-2-yl]-5-methyl-1H-pyrimidine-2,4-dione] | > 50 |  |
| Cc1cn([C@H]2C[C@@H](O)[C@H](OC(C)(C)C)O2)c(=O)[nH]c1=O [1-((2R,4R,5R)-5-tert-Butoxy-4-hydroxy-tetrahydro-furan-2-yl)-5-methyl-1H-pyrimidine-2,4-dione] | > 50 |  |
